Measurements taken from patent publication US9023821B2, “Use of MicroRNA for treating diseases associated with a dysfunction of the cilia in multiciliated epithelial cells” (Centre National de la Recherche Scientifique, priority 2009, dated 2015).

What was measured:
[1] = test system: human airway epithelial cells (HAECs); assay: High-throughput sequencing (HTS) of miRNAs at four stages of differentiation of HAECs; details: for Modulation (ratio of the level of intensity of expression in log2 in two stages of differentiation) measured by high-throughput sequencing, D7 − D0 / Modulation (ratio of the level of intensity of expression in log2 in two stages of differentiation) measured by high-throughput sequencing, FC − D7 / Modulation (ratio of the level of intensity of expression in log2 in two stages of differentiation) measured by high-throughput sequencing, WD − D0 / Modulation (ratio of the level of intensity of expression in log2 in two stages of differentiation) measured by high-throughput sequencing, WD − FC / Level of intensity of expression in log2 measured by high-throughput sequencing, D0 / Level of intensity of expression in log2 measured by high-throughput sequencing, D7 / Level of intensity of expression in log2 measured by high-throughput sequencing, FC / Level of intensity of expression in log2 measured by high-throughput sequencing, WD: Table VI; for Modulation (ratio of the level of intensity of expression in log2 in two stages of differentiation), D7 − D0 / Modulation (ratio of the level of intensity of expression in log2 in two stages of differentiation), FC − D7 / Modulation (ratio of the level of intensity of expression in log2 in two stages of differentiation), WD − FC / Abundance (%), D0 / Abundance (%), D7 / Abundance (%), FC / Abundance (%), WD: HTS; for Abundance (%), D0: ALI-D0; for Abundance (%), D7: ALI-D7; for Abundance (%), FC: ALI-FC; for Abundance (%), WD: ALI-WD; for Level of intensity of expression in log2 At the differentiated stage (WD) measured in HTS: healthy human airway epithelial tissue; for Level of intensity of expression in log2 measured by high-throughput sequencing, D0: stage D0; for Level of intensity of expression in log2 measured by high-throughput sequencing, D7: stage D7; for Level of intensity of expression in log2 measured by high-throughput sequencing, FC: stage FC; for Level of intensity of expression in log2 At the differentiated stage (WD) measured in HTS / Level of intensity of expression in log2 measured by high-throughput sequencing, WD: stage WD
How it was run: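 Differentiation time course at air-liquid interface: 0, 7, ~14 (first cilia) and ~21 days (fully differentiated). Sequencing counts per strand were normalized to 10^6 sequences and analysed by linear model with empirical Bayesian moderation.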

[2] = test system: human airway epithelial cells (HAECs); assay: Agilent miRNA chips, miRNA expression at four stages of differentiation of HAECs; details: for Modulation (ratio of the level of intensity of expression in log2 in two stages of differentiation) measured with the Agilent chips, D7 − D0 / Modulation (ratio of the level of intensity of expression in log2 in two stages of differentiation) measured with the Agilent chips, FC − D7 / Modulation (ratio of the level of intensity of expression in log2 in two stages of differentiation) measured with the Agilent chips, WD − D0 / Modulation (ratio of the level of intensity of expression in log2 in two stages of differentiation) measured with the Agilent chips, WD − FC / Level of intensity of expression in log2 measured with the Agilent chips, D0 / Level of intensity of expression in log2 measured with the Agilent chips, D7 / Level of intensity of expression in log2 measured with the Agilent chips, FC / Level of intensity of expression in log2 measured with the Agilent chips, WD: Table VI; for Modulation (ratio of the level of intensity of expression in log2 at two stages of differentiation), FC − D7 / Modulation (ratio of the level of intensity of expression in log2 at two stages of differentiation), WD − FC: Agilent miRNA chips, Table V; for Level of intensity of expression in log2 measured with the Agilent chips, D0: stage D0; for Level of intensity of expression in log2 measured with the Agilent chips, D7: stage D7; for Level of intensity of expression in log2 measured with the Agilent chips, FC: stage FC; for Level of intensity of expression in log2 measured with the Agilent chips, WD: stage WD
How it was run: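 RNA from the same patients' HAECs at four differentiation stages was labelled and hybridized with the Agilent miRNA labeling and hybridization kit. Chips were Human miRNA Microarray v2, with 866 human and 89 viral miRNAs (miRBase v12.0). Profiles were compared with high-throughput sequencing data.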

[3] = test system: basal cells and pyramidal cells of the airway epithelium; assay: miRNA expression in sorted basal cells versus pyramidal cells (ciliated + secretory), HTS and Agilent chips; set-up: species or system human; details: for Modulation of expression of the miRNAs in pyramidal cells (323(−)) relative to basal cells 323(+): HTS and Agilent chips; for Intensity of the level of expression in log2 in pyramidal cells (323(−)): pyramidal cells (ciliated + secretory)
How it was run: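 Sorted basal versus ciliated/mucus-secreting cells; markers CD151 and tissue factor; donors n=3; miRNA by Agilent chip or HTS.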

| Substance | Modulation (ratio of the level of intensity of expression in log2 in two stages of differentiation) measured by high-throughput sequencing, D7 − D0 [1] [log2] | Modulation (ratio of the level of intensity of expression in log2 in two stages of differentiation) measured by high-throughput sequencing, FC − D7 [1] [log2] | Modulation (ratio of the level of intensity of expression in log2 in two stages of differentiation) measured by high-throughput sequencing, WD − D0 [1] [log2] | Modulation (ratio of the level of intensity of expression in log2 in two stages of differentiation) measured by high-throughput sequencing, WD − FC [1] [log2] | Level of intensity of expression in log2 At the differentiated stage (WD) measured in HTS [1] [log2] | Level of intensity of expression in log2 measured by high-throughput sequencing, D0 [1] [log2] | Level of intensity of expression in log2 measured by high-throughput sequencing, D7 [1] [log2] | Level of intensity of expression in log2 measured by high-throughput sequencing, FC [1] [log2] | Level of intensity of expression in log2 measured by high-throughput sequencing, WD [1] [log2] | Modulation (ratio of the level of intensity of expression in log2 in two stages of differentiation) measured with the Agilent chips, D7 − D0 [2] [log2] | Modulation (ratio of the level of intensity of expression in log2 in two stages of differentiation) measured with the Agilent chips, FC − D7 [2] [log2] | Modulation (ratio of the level of intensity of expression in log2 in two stages of differentiation) measured with the Agilent chips, WD − D0 [2] [log2] | Modulation (ratio of the level of intensity of expression in log2 in two stages of differentiation) measured with the Agilent chips, WD − FC [2] [log2] | Level of intensity of expression in log2 measured with the Agilent chips, D0 [2] [log2] | Level of intensity of expression in log2 measured with the Agilent chips, D7 [2] [log2] | Level of intensity of expression in log2 measured with the Agilent chips, FC [2] [log2] | Level of intensity of expression in log2 measured with the Agilent chips, WD [2] [log2] | Modulation of expression of the miRNAs in pyramidal cells (323(−)) relative to basal cells 323(+) [3] | Intensity of the level of expression in log2 in basal cells (323(+)) [3] [log2] | Intensity of the level of expression in log2 in pyramidal cells (323(−)) [3] [log2] | other results |
| --- | --- | --- | --- | --- | --- | --- | --- | --- | --- | --- | --- | --- | --- | --- | --- | --- | --- | --- | --- | --- | --- |
| hsa-miR-34c-5p: human miRNA, SEQ ID No. 40 (AGGCAGUGUAGUUAGCUGAUUGC; expressed or natural sequence; listed as Homo sapiens) | 1.33 | 4.02 | 6.41 | 1.06 | 0.01 | 7.88 | 9.21 | 13.23 | 14.29 | 2.35 | 4.27 | 7.44 | 0.82 | 3.94 | 6.29 | 10.56 | 11.39 | 5.74 | 4.75 | 10.49 | Modulation (ratio of the level of intensity of expression in log2 in two stages of differentiation), D7 − D0 [1]: 1.33 log2; Modulation (ratio of the level of intensity of expression in log2 in two stages of differentiation), FC − D7 [1]: 4.02 log2; Modulation (ratio of the level of intensity of expression in log2 in two stages of differentiation), WD − FC [1]: 1.06 log2; Abundance (%), D0 [1]: 0.05%; Abundance (%), D7 [1]: 0.13%; Abundance (%), FC [1]: 2.05%; Abundance (%), WD [1]: 3.23%; Modulation (ratio of the level of intensity of expression in log2 at two stages of differentiation), FC − D7 [2]: 4.27 log2; Modulation (ratio of the level of intensity of expression in log2 at two stages of differentiation), WD − FC [2]: 0.82 log2 |
| hsa-miR-92b: human miRNA, SEQ ID No. 49 (UAUUGCACUCGUCCCGGCCUCC; expressed or natural sequence; listed as Homo sapiens) | 1.21 | 4.12 | 5.93 | 0.60 | 0.01 | 7.49 | 8.70 | 12.82 | 13.42 | 0.48 | 4.21 | 4.39 | −0.29 | 0.10 | 0.57 | 4.78 | 4.49 | 1.67 | 0.40 | 2.07 | Modulation (ratio of the level of intensity of expression in log2 in two stages of differentiation), D7 − D0 [1]: 1.21 log2; Modulation (ratio of the level of intensity of expression in log2 in two stages of differentiation), FC − D7 [1]: 4.12 log2; Modulation (ratio of the level of intensity of expression in log2 in two stages of differentiation), WD − FC [1]: 0.60 log2; Abundance (%), D0 [1]: 0.04%; Abundance (%), D7 [1]: 0.09%; Abundance (%), FC [1]: 1.54%; Abundance (%), WD [1]: 1.77% |
| hsa-miR-96: human miRNA, SEQ ID No. 51 (UUUGGCACUAGCACAUUUUUGCU; expressed or natural sequence; listed as Homo sapiens) | −0.08 | −0.71 | 0.02 | 0.81 | 12.65 | 5.41 | 5.33 | 4.62 | 5.43 | 1.19 | −0.50 | 0.64 | −0.04 | 8.52 | 9.71 | 9.21 | 9.16 | −1.51 | 6.81 | 5.30 | Modulation (ratio of the level of intensity of expression in log2 at two stages of differentiation), FC − D7 [2]: −0.50 log2; Modulation (ratio of the level of intensity of expression in log2 at two stages of differentiation), WD − FC [2]: −0.04 log2 |
